# Results as given in patent publication US11458120B2, “Aptamer-drug conjugate and use thereof” (priority 2016, dated 2022).
# Non-standard residues stand in square brackets, D forms with d. Residues, ends and D or L forms follow the SMILES beside them. *: point of attachment. Dolaproine = CO[C@@H]([C@@H]1CCCN1)[C@@H](C)C(=O)O; Dil = CC[C@H](C)[C@H](NC)[C@@H](CC(=O)O)OC; X1 = C[C@@H](N*)[C@@H](O)c1ccccc1; NMeV = CN[C@H](C(=O)O)C(C)C
# Experiments:
# [1] = test system: A549 lung cancer cell line-injected mice; experiment: In vivo therapeutic efficacy on A549 lung cancer cell line-injected mice (FDG PET, tumor size); parameters: species or system nude mouse; details: i.v. 4 times by 5 day intervals, conjugate 7.5 mg/kg (0.5 mg/kg of MMAE) or MMAE 0.5 mg/kg, 30 days after start of treatment
# Method: To A549 lung cancer cell line-injected mice, MMAE-(PAB-Cit-Val-MC-S-C6)-T3-AS1411 and MMAE, respectively, were administered by IV injection for 30 days, followed by identifying tumor sizes through PET images. A549 lung cancer cells in a number of 6.1×10^6 cells/ml were injected subcutaneously in the right thigh of each nude mouse. The tumor size was measured in 3 to 4 weeks after the injection and, when a diameter of the tumor reached 0.8 cm, microPET images were captured before treatment. For PET images, F-18 FDG 0.2 mCi was i.p. injected and then the images were captured (Siemens Inveon). After detection of FDG intake in the tumor from the images, MMAE-(PAB-Cit-Val-MC-S-C6)-T3-AS1411 was i.v. injected in an experimental group of 5 mice 4 times by 5 day intervals (7.5 mg/kg, 0.5 mg/kg of MMAE). […]
# To A549 lung cancer cell-injected mice, MMAE was administered by IV injection for 30 days, followed by observation of PET images. […] The tumor size was measured in 3 to 4 weeks after the injection and, when a diameter of the tumor reached 0.8 cm, microPET images were captured before treatment. […]
# As compared to administration of MMAE alone, it was determined that MMAE-(PAB-Cit-Val-MC-S-C6)-T3-AS1411 inhibits 80% more cancer. After the start of treatment, sizes of tumors were measured in both of horizontal and vertical axes by 5 day intervals. […]
# [2] = test system: Mv4-11 AML cell line-injected mice; experiment: In vivo therapeutic efficacy on Mv4-11 AML cell line-injected mice (FDG PET); parameters: species or system nude mouse; details: Mv4-11 AML tumor, i.v. 4 times by 5 day intervals, conjugate 7.5 mg/kg or MMAE 0.5 mg/kg, 30 days after start of treatment
# Method: To Mv4-11 AML cell line-injected mice, citravin-(GLFG-MC-S-C6)-T3-AS1411 and MMAE, respectively, were administered by IV injection for 30 days, followed by identifying tumor sizes through PET images. Mv4-11 AML cells in a number of 6.1×10^6 cells/ml were injected subcutaneously in the right thigh of each nude mouse. The tumor size was measured in 3 to 4 weeks after the injection and, when a diameter of the tumor reached 0.8 cm, microPET images were captured before treatment. For PET images, F-18 FDG 0.2 mCi was i.p. injected and then the images were captured (Siemens Inveon). After detection of FDG intake in the tumor from the images, citravin-(GLFG-MC-S-C6)-T3-AS1411 was i.v. injected in an experimental group of 5 mice 4 times by 5 day intervals (7.5 mg/kg, 0.5 mg/kg of MMAE). After 30 days from the start of treatment, microPET images were captured by the same method as used before treatment (FIG. 13 and FIG. 14).
# To Mv4-11 AML cell line-injected mice, MMAE was administered by IV injection for 30 days, followed by observation of PET images. Mv4-11 AML cells in the number of 6.1×10^6 cells/ml were injected subcutaneously in the right thigh of each nude mouse. The tumor size was measured in 3 to 4 weeks after the injection and, when a diameter of the tumor reached 0.8 cm, microPET images were captured before treatment. […]
# [3] = reported by the Weihong Tang group, University of Florida; cited from earlier work
# Mv4-11 cell line = experiment: MTT assay to Mv4-11 cell lines; assay type: cell-based; details: Mv4-11 cells, 72 hours incubation, absorbance at 490 nm, FIG. 6
# Method: With regard to Mv4-11 cell line as a […] over-expressing a nucleoline protein, cell inhibition efficacy of citravin-(GLFG-MC-S-C6)-T3-AS1411 was verified in vitro by MTT assay. […] Mv4-11 cells (ATCC, IMDM+10% FBS) were seeded on a 96-well plate in a cell number of 2.5 to 5×10^5 cells/well, which was determined by a cell test method to determine an appropriate cell concentration, followed by growing for 1 day. After heating each of citravin-(GLFG-MC-S-C6)-T3-AS1411 and citravin-(GLFG-MC-S-C6)-T3-CRO at 95° C. for 5 minutes, the heated product was gradually cooled at room temperature and directly treated on each well at different concentrations. After incubating the treated A549 cells in 5% CO2 incubator for 72 hours, the incubated product was treated with 20 μL of a reagent solution for MTT assay (Cell Proliferation kit II, Roche) and incubated for different periods of time (10 min, 30 min, 1 hr). Thereafter, the final product was subjected to measurement of absorbance at 490 nm by an ELISA reader (FIG. 6).
# A549 cell line = experiment: MTT assay to A549 cell lines; assay type: cell-based; details: A549 cells, 72 hours incubation, FIG. 17 and FIG. 18
# Method: With regard to A549 cell line as a lung cancer cell line over-expressing a nucleoline protein, cell inhibition efficacy of MMAE-(PAB-Cit-Val-MC-S-C6)-T3-AS1411 was verified in vitro by MTT assay. […] A549 cells (ATCC, IMDM+10% FBS) were seeded on a 96-well plate in a cell number of 2.5 to 5×10^5 cells/well, which was determined by a cell test method to determine an appropriate cell concentration, followed by growing for 1 day. After heating each of MMAE-(PAB-Cit-Val-MC-S-C6)-T3-AS1411 and MMAE-(PAB-Cit-Val-MC-S-C6)-T3-CRO at 95° C. for 5 minutes, the heated product was gradually cooled at room temperature and directly treated on each well at different concentrations. […] Thereafter, the final product was subjected to measurement of absorbance at 490 nm by an ELISA reader (FIG. 5).
# With regard to A549 cell line as a lung cancer cell line over-expressing a nucleoline protein, cell inhibition efficacies of MMAE-(PAB-Cit-Val-MC-S-C6)-T3-AS1411, 12 or 13-(MMAE-PAB-Cit-Val-MC-S-C6)-AS1411 and 12,13-(MMAE-PAB-Cit-Val-MC-S-C6)2-AS1411 were verified in vitro by MTT assay. […] A549 cells (ATCC, IMDM+10% FBS) were seeded on a 96-well plate in a cell number of 2.5 to 5×10^5 cells/well, which was determined by a cell test method to determine an appropriate cell concentration, followed by growing for 1 day. […]
molecule,measurement,setting,value
"CC[C@H](C)[C@@H]([C@@H](CC(=O)N1CCC[C@H]1[C@H](OC)[C@@H](C)C(=O)N[C@H](C)[C@@H](O)c1ccccc1)OC)N(C)C(=O)[C@@H](NC(=O)[C@@H](NC)C(C)C)C(C)C [MMAE, monomethyl auristatin E, reference compound] (H-[NMeV]V[Dil][Dolaproine]-X1)","FDG intake in the tumor from PET images, after vs before treatment",[1],FDG intake in the tumor was increased even after treatment
same,"FDG intake in the tumor from PET images, after vs before treatment",[2],FDG intake in the tumor was increased even after treatment
COc1cccc2c1C(=O)c1c(O)c3c(c(O)c1C2=O)C[C@@](O)(C(=O)CO)C[C@@H]3O[C@H]1C[C@H](N)[C@H](O)[C@H](C)O1 [doxorubicin],cytotoxic effects,[3],20%
citravin-(Gly-Leu-Phe-Gly (SEQ ID NO: 8))-Mal-S-C6-tttggtggtggtggttgtggtggtggtgg [citravin-(GLFG-MC-S-C6)-T3-AS1411],"FDG intake in the tumor from PET images, after vs before treatment",[2],a decrease in FDG intake in the tumor is observed
same,"cell inhibition efficacy (cell viability and cell proliferation) by MTT assay, compared with citravin",Mv4-11 cell line,almost the same efficacy as citravin
"ggtggtggtggu (SEQ ID NO: 4)[5-N-(6-(3-monomethyl auristatin-p-aminobenzoyloxycarbonyl-citrulline-valine-Mal-thiopropanoyl)-aminohexyl)-3-acrylamido]u[5-N-(6-(3-monomethyl auristatin-p-aminobenzoyloxycarbonyl-citrulline-valine-Mal-thiopropanoyl)-aminohexyl)-3-acrylamido]gtggtggtggtgg (DNA GGTGGTGGTGGU; two MMAE-linker conjugates at positions 12,13, chemistry not fully specified) [12,13-(MMAE-PAB-Cit-Val-MC-S-C6)2-AS1411]","cell inhibition efficacy by MTT assay, comparison between MMAE-linker-aptamer conjugates",A549 cell line,superior efficacy over of MMAE-(PAB-Cit-Val-MC-S-C6)-T3-AS1411
